Results taken from US10934310B2, “Inhibitors of Bruton's tyrosine kinase and method of their use” (JANSSEN PHARMACEUTICA NV, priority 2015, dated 2021).

Each compound was assayed against unphosphorylated-BTK kinase domain (UP-BTK), GST-tagged human BTK (389-659aa) (Homo sapiens (Human), UniProt Q06187) (assay: BTK Kinase Lanthascreen Binding Assay). Conditions: Lanthascreen binding, 60 minutes incubation; pIC50 = negative log of the IC50 in molar.
Description: BTK Kinase Lanthascreen Binding Assay:
A BTK kinase lanthascreen binding assay monitors compound binding to unphosphorylated-BTK kinase domain (UP-BTK), by competing with a fluorescent labeled tracer. […] Data were analyzed using Xlfit™ version 5.3 from ID Business Solutions (Guildford), Microsoft Excel add-in. pIC50 refers to the negative log of the IC50 in molar.

Chain of unphosphorylated-BTK kinase domain (UP-BTK), GST-tagged human BTK (389-659aa) (Q06187 389-659): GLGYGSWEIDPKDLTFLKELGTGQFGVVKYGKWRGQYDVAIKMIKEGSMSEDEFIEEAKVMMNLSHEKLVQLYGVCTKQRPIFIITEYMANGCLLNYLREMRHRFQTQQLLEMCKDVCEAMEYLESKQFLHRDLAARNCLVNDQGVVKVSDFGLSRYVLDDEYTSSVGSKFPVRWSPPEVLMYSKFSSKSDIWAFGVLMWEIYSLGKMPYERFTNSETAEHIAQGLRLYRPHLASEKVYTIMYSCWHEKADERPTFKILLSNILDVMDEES

Row | SMILES | BTK_I_binding pIC50
1 | C=CC(=O)N[C@H]1CCC[C@H]1NC(=O)c1sc2nccc3c2c1NC(=O)N3c1ccc(Oc2cncnc2)nc1C [Example 492, N-((1R,2S)-2-Acrylamidocyclopentyl)-5-(2-methyl-6-(pyrimidin-5-yloxy)pyridin-3-yl)-4-oxo-4,5-dihydro-3H-1-thia-3,5,8-triazaacenaphthylene-2-carboxamide] | 6.66
2 | C=CC(=O)N[C@H]1CCC[C@H]1NC(=O)c1sc2nccc3c2c1NC(=O)N3c1ccc(Oc2cccnc2C)cn1 [Example 493, N-((1R,2S)-2-Acrylamidocyclopentyl)-5-(5-((2-methylpyridin-3-yl)oxy)pyridin-2-yl)-4-oxo-4,5-dihydro-3H-1-thia-3,5,8-triazaacenaphthylene-2-carboxamide] | 7.32
3 | C=CC(=O)N[C@H]1CCC[C@H]1NC(=O)c1sc2nccc3c2c1NC(=O)N3c1ccc(Oc2cccnc2)nc1C [Example 494, N-((1R,2S)-2-Acrylamidocyclopentyl)-5-(2-methyl-6-(pyridin-3-yloxy)pyridin-3-yl)-4-oxo-4,5-dihydro-3H-1-thia-3,5,8-triazaacenaphthylene-2-carboxamide] | 7.37
4 | C=CC(=O)N[C@H]1CCC[C@H]1NC(=O)c1sc2nccc3c2c1NC(=O)N3c1ccc(Oc2ccc(C)nc2)nc1C [Example 495, N-((1R,2S)-2-Acrylamidocyclopentyl)-5-(2-methyl-6-((6-methylpyridin-3-yl)oxy)pyridin-3-yl)-4-oxo-4,5-dihydro-3H-1-thia-3,5,8-triazaacenaphthylene-2-carboxamide] | 6.63
5 | C=CC(=O)N[C@H]1CCC[C@H]1NC(=O)c1sc2nccc3c2c1NC(=O)N3c1ccc(Oc2cncnc2)cc1 [Example 508, N-((1R,2S)-2-acrylamidocyclopentyl)-4-oxo-5-(4-(pyrimidin-5-yloxy)phenyl)-4,5-dihydro-3H-1-thia-3,5,8-triazaacenaphthylene-2-carboxamide] | 7.48
